Source: patent US8362256B2, “Salts of N-[4-(1-cyanocyclopentyl)phenyl]-2-(4-pyridylmethyl)amino-3-pyridinecarboxamide” (Jiangsu Hengrui Medicine Co. Ltd., priority 2008, dated 2013)
“And” between values parts separate entries of the source, which are not always exact repeats. Equal values may be shown once. Read-outs that look alike come from different tables or passages of the source.

What was measured:
Solubility = assay type: physicochemical
[1] = Stability in different conditions, content by HPLC; assay type: physicochemical; conditions: for content after 6 Months Under Light / content after 6 Months at 60° C. / content after 6 Months at Room Temperature: HPLC, initial purity 99.6%
[2] = Bioavailability of compound A by oral administration (Example 4); assay type: in vivo, Sprague-Dawley (SD) rats; conditions: SD rats
Method: (§1) I. Analysis Condition of LC/MS/MS
(§2) Analysis Condition of Liquid Chromatography
(§3) Column temperature: 25° C.;
(§4) A: 25%+B: 75%, constant gradient elution;
(§5) Analysis time: 3 minutes.
Only after one week adaption, the rats could be used to conduct pharmacokinetics animal experiment.
The blood samples were collected into test tubes containing heparin added in advance, and then centrifuged to produce plasma. […] Euthanasia was performed on used rats with CO2 gas.

VEGFR-2 = VEGFR-2 (Homo sapiens, UniProt P35968); conditions: enzyme level tests in different laboratories; cited from earlier work
[3] = tested on: kinases Ret, VEGFR-1, PDGFR-β, c-kit, cSRC; conditions: cited from earlier work
[4] = tested on: non-small cell lung cancer A549; conditions: cited from earlier work
colon cancer Ls174t = conditions: cited from earlier work
in vivo = conditions: rat, po, 1 mmol/kg
Source text: Male Sprague-Dawley (SD) rats (weight: about 250 g, experimental animal certification of fitness: 0006473) were purchased from Shanghai Slaccas experimental animals limited liability company (certification number: SCXK (Hu) 2003-0003). The relevant qualifications and state of health of the SD rats were checked first, and the eligible ones were placed into the clean grade chambers of rats in Shanghai institute of Materia Medica.
as §1, §2
Chromatographic column: Agilent Zorbax SB-C18 column (50 mm×2.1 mm ID);
as §3
Mobile phase: A: H2O—CH3CN (2:98, v/v), B: H2O—CH3CN (10:90, v/v)
as §4, §5
The light circle was switched to 12/12 hour day/night in the clean grade chambers of rats. Humidity and temperature were 40-60% and 20-24° C., respectively. Every 4 rats were raised in a 36×24×19 cm^3 stainless rat cage. The rats took water freely and were fed special rat food regularly once daily. Only after one week adaption, the rats were used to conduct pharmacokinetics studies. 12 Sprague-Dawley rats were divided into 4 groups, 3 for each group.
The blood samples were collected 0 hour before the administration and 0.083, 0.25, 0.5, 1.0, 2, 4, 6, and 8 hours after the administration. The blood samples were collected at 250˜300 μL at each time point from posterior venous sinus of the eye after respiration anaesthesia with ether (the degree of anaesthesia was highly controlled). The blood was collected into test tubes containing heparin, and then was centrifuged to produce plasma. The obtained plasma was divided into 2 parts (50 μL for each part) and stored at −70° C. until analysis. […] After experiments, euthanasia was performed with CO2 gas.
Pharmacokinetics parameters of animal experiment of each group were calculated using InnaPhase Kinetica™ software (America).

c-Src = c-Src (Homo sapiens, UniProt P12931); assay: ELISA tyrosine kinase inhibition; assay type: biochemical; conditions: concentration increased to 10^4 nM
Method: Phosphorylation of substrate was determined with monoclonal antibody of anti-phosphorylation tyrosine (PY99). Goat anti-mouse IgG marked with HRP was then added, and the degree of phosphorylation of substrate was determined with OPD coloration. At the same time, the control group without tyrosine kinase and control wells of corresponding DMSO concentration were set up. 2 M of H2SO4 was added in 50 μl/well to terminate the reaction. Data was read with adjustable wavelength micro plate enzyme-labeling instrument VERSAmax (Sunnyvale, Calif., U.S.A.), followed by visualization reaction, OD490 nm value was then observed.
Relative inhibition rate of drugs on tyrosine kinase protein was determined.

[5] = tested on: human colon cancer Ls174t; assay: Efficacy on human colon cancer Ls174t transplanted in nude mice; conditions: for Weight after Removing Tumor, d0 / TV x ± SD, d0: d0 baseline; for RTV x ± SD / T/C / TV x ± SD, dn: dn 14 days; for Weight after Removing Tumor, dn: dn 14 days after first administration
Method: BALB/cA-nude mice, ♀, 5-6 weeks-old, available from Shanghai Slaccas experimental animals limited liability company. […] Rearing environment: SPF grade.
After one week adaption, the experimental animals were subcutaneously inoculated with human colon cancer Ls174t tumor tissues. When the tumors grew to 100-300 mm^3, the animals were randomly divided into several groups in day 0 (d0). […] The volumes of tumors and the weights of mice were measured 2-3 times every week, the data of which were recorded. The equation for the calculation of volume of tumors (V) is: V=½×a×b^2 wherein a and b represent length and width, respectively.

human colon cancer HT-29 = assay: Efficacy on human colon cancer HT-29 transplanted in nude mice
Method: BALB/cA-nude mice, ♀, 5-6 weeks-old, purchased from Shanghai Slaccas experimental animals limited liability company. […] Rearing environment: SPF grade.
After one week adaption, the experimental animals were subcutaneously inoculated with human colon cancer HT-29 tumor tissues. When the tumors grew to 100-300 mm^3, the animals were randomly divided into several groups. […] Volume of tumors and weight of mice were measured 2-3 times every week, the data of which were recorded. The equation for the calculation of volume of tumors (V) is: V=½×a×b^2 wherein a, b represent length and width, respectively.

[6] = 75 mg/kg; initial tumor volume 25-100 mm3; 28 days or more; cited from earlier work
[7] = oral 20 mg/kg, individual rats, 20 mg/kg
[8] = 50 mg/kg p.o. once daily d0-d13
[9] = 100 mg/kg p.o. once daily d0-d13
[10] = 200 mg/kg p.o. once daily d0-d13
[11] = 200 mg/kg p.o. once daily d0-d20, dn 21 days

VEGFR-2, sequence (P35968 20-1356, species assumed): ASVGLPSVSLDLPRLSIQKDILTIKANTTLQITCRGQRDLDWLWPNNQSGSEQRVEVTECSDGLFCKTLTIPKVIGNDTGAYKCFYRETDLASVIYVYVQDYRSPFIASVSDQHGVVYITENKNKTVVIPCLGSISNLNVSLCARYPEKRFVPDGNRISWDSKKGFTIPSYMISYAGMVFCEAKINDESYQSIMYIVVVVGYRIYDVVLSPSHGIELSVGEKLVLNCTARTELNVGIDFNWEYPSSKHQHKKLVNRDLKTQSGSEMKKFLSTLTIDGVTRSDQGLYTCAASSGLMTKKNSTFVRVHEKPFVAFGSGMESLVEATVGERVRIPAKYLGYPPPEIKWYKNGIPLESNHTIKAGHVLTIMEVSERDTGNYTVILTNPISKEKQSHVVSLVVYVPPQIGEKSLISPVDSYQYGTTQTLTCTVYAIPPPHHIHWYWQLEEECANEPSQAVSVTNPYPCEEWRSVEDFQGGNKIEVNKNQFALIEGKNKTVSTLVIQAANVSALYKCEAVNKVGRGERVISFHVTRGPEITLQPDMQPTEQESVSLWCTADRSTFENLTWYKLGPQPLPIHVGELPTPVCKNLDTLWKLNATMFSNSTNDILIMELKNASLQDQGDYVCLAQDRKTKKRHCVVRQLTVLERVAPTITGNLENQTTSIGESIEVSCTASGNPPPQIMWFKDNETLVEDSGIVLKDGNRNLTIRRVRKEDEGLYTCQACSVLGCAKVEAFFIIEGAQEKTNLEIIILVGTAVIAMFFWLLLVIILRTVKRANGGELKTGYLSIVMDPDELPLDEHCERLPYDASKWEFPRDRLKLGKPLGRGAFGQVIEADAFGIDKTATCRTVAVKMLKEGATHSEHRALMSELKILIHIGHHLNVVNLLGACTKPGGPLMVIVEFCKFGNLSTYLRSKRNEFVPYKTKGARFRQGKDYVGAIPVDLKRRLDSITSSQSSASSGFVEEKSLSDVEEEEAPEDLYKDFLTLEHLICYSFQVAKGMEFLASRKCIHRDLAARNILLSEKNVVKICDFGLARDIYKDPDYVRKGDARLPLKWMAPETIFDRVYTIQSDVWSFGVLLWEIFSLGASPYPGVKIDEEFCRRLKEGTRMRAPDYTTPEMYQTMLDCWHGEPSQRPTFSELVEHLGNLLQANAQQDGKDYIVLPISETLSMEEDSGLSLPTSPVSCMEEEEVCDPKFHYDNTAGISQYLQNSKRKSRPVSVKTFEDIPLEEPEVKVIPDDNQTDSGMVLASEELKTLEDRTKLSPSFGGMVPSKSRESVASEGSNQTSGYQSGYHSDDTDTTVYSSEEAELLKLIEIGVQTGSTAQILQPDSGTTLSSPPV
c-Src, sequence (P12931 whole entry, species assumed): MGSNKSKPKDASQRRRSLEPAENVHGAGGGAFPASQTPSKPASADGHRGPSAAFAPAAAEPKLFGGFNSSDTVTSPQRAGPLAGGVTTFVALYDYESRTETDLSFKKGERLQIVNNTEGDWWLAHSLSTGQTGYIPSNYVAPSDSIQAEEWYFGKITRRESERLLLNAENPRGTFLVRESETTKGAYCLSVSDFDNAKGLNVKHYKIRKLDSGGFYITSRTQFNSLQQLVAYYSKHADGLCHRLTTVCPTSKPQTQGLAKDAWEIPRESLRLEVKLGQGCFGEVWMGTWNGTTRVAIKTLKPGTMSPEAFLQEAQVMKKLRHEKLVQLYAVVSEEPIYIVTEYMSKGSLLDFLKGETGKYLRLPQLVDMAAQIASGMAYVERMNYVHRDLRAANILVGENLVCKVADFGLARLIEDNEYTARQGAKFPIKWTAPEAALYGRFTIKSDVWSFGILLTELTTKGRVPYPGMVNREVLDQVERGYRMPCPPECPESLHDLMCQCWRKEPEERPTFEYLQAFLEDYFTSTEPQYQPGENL

## N#CC1(c2ccc(NC(=O)c3cccnc3NCc3ccncc3)cc2)CCCC1 [Compound A, N-[4-(1-cyanocyclopentyl)phenyl]-2-(4-pyridylmethyl)amino-3-pyridine carboxamide]
Solubility
  Solubility in water: Insoluble
[1]
  content after 6 Months Under Light: 95.2%
  content after 6 Months at 60° C.: 92.2%
  content after 6 Months at Room Temperature: 95.7%
[2]; oral 20 mg/kg, 3 rats
  CL, Mean ± SD: 1520 ± 393 mL/min/kg
  Kel, Mean ± SD: 0.426 ± 0.169 h⁻¹
  Vd, Mean ± SD: 300 ± 69.4 L/kg
[2]; [7]
  AUC0→8h: 295 ng·h/mL and 211 ng·h/mL
  CL: 1920 mL/min/kg and 1120 mL/min/kg and 1540 mL/min/kg
  Cmax: 68.9 ng/mL and 79.2 ng/mL
  Kel: 0.325 h⁻¹ and 0.622 h⁻¹ and 0.332 h⁻¹
  MRT: 3.38 h and 3.32 h
  T1/2: 1.12 h and 2.09 h
  Tmax: 1 h
  Vd: 366 L/kg and 228 L/kg and 308 L/kg
[2]; male, Sprague-Dawley, rat, plasma, po, 20 mg/kg, 3 rats, read-out: AUC0→8h, Mean ± SD
  AUC(0-t): 226 ± 63 ng·h/mL
[2]; male, Sprague-Dawley, rat, plasma, po, 20 mg/kg, 3 rats, read-out: Cmax, Mean ± SD
  Cmax: 69.6 ± 9.2 ng/mL
[2]; male, Sprague-Dawley, rat, plasma, po, 20 mg/kg, 3 rats, read-out: MRT, Mean ± SD
  MRT: 3.3 ± 0.09 h
[2]; male, Sprague-Dawley, rat, plasma, po, 20 mg/kg, 3 rats, read-out: T1/2, Mean ± SD (converted)
  half-life: 1.78 ± 0.57 h
[2]; male, Sprague-Dawley, rat, plasma, po, 20 mg/kg, 3 rats, read-out: Tmax, Mean ± SD
  Tmax: 1.33 ± 0.29 h
[2]; male, Sprague-Dawley, rat, plasma, po, 20 mg/kg, individual rats, read-out: AUC0→8h
  AUC(0-t): 172 ng·h/mL
[2]; male, Sprague-Dawley, rat, plasma, po, 20 mg/kg, individual rats, read-out: Cmax
  Cmax: 60.8 ng/mL
[2]; male, Sprague-Dawley, rat, plasma, po, 20 mg/kg, individual rats, read-out: MRT
  MRT: 3.2 h
[2]; male, Sprague-Dawley, rat, plasma, po, 20 mg/kg, individual rats, read-out: T1/2 (converted)
  half-life: 2.13 h
[2]; male, Sprague-Dawley, rat, plasma, po, 20 mg/kg, individual rats, read-out: Tmax
  Tmax: 1.5 h
VEGFR-2
  IC50: ~1 nM
[3]
  inhibition activity on kinases Ret, VEGFR-1, PDGFR-β, c-kit, cSRC: certain selective inhibition activity
[4]; compared with PTK787
  efficacy on non-small cell lung cancer A549 transplanted in nude mice: distinctly better than PTK787
[4]; compared with ZD6474 at a customary dose
  maximum efficacy on A549: equivalent to ZD6474
Colon cancer Ls174t; combination with oxaliplatin
  efficacy in combination with oxaliplatin: improved
Colon cancer Ls174t; mouse, in vivo
  toxicity in combination with oxaliplatin: not increased
Colon cancer Ls174t; used alone, compared with PTK787
  efficacy on colon cancer Ls174t transplanted in nude mice: distinctly better than PTK787

## Cl.N#CC1(c2ccc(NC(=O)c3cccnc3NCc3ccncc3)cc2)CCCC1 [Hydrochloride of compound A]
Solubility
  Solubility in water: very slightly
[1]
  stability (conclusion of stability experiments): most satisfying
  content after 6 Months Under Light: 97.6%
  content after 6 Months at 60° C.: 94.7%
  content after 6 Months at Room Temperature: 98.2%
In vivo
  AUC0→8 h Mol dose: 17653 ± 3232 ng·h/mL

## N#CC1(c2ccc(NC(=O)c3cccnc3NCc3ccncc3)cc2)CCCC1.O=C(O)/C=C\C(=O)O [Maleate of compound A]
Solubility
  Solubility in water: Insoluble
[1]
  content after 6 Months Under Light: 94.2%
  content after 6 Months at 60° C.: 93.5%
  content after 6 Months at Room Temperature: 96.4%
In vivo
  AUC0→8 h Mol dose: 11697 ± 8807 ng·h/mL

## Clc1ccc(Nc2nnc(Cc3ccncc3)c3ccccc23)cc1 [PTK787, reference compound]
c-Src
  inhibition on c-Src: no inhibition
[5]; [8]
  Weight after Removing Tumor, d0: 19.5 g
  RTV x ± SD: 9.4 ± 5.9
  T/C: 76.4%
  TV x ± SD, dn: 1425 ± 613
  Weight after Removing Tumor, dn: 17.6 g
[5]; 50 mg/kg p.o.
  TV x ± SD, d0: 171 ± 39
[5]; [9]
  Weight after Removing Tumor, d0: 19.3 g
  RTV x ± SD: 8.8 ± 3.5
  T/C: 71.5%
  TV x ± SD, dn: 1538 ± 402
  Weight after Removing Tumor, dn: 17.3 g
[5]; 100 mg/kg p.o.
  TV x ± SD, d0: 175 ± 43
[5]; [10]
  Weight after Removing Tumor, d0: 18.8 g
  RTV x ± SD: 7.4 ± 2.0
  TV x ± SD, dn: 1076 ± 198
  Weight after Removing Tumor, dn: 17.1 g
[5]; 200 mg/kg p.o.
  TV x ± SD, d0: 150 ± 25
[5]; 400 mg/kg
  efficacy at 400 mg/kg: did not increase significantly
[5]; Mus musculus, LS174T, read-out: ED50 on colon cancer Ls174t
  ED50: 459 mg/kg
[5]; mouse, in vivo
  tolerance at 400 mg/kg: could be tolerated by mice
Human colon cancer HT-29; 200 mg/kg p.o. once daily d0-d20, d0 baseline
  Weight after Removing Tumor, d0: 15.9 g
Human colon cancer HT-29; [11]
  RTV x ± SD: 4.9 ± 1.36
  TV x ± SD, dn: 1185 ± 143
Human colon cancer HT-29; 200 mg/kg p.o. once daily d0-d20, dn 21 days after first administration
  Weight after Removing Tumor, dn: 13.9 g
Human colon cancer HT-29; 200 mg/kg p.o., d0 baseline
  TV x ± SD, d0: 252 ± 43
Human colon cancer HT-29; mouse, in vivo, po
  tolerance: well tolerated
[6]
  best T/C %: 40%

## N#CC1(c2ccc(NC(=O)c3cccnc3NCc3ccncc3)cc2)CCCC1.O=P(O)(O)O [Phosphate of compound A]
Solubility
  Solubility in water: Insoluble
[1]
  content after 6 Months Under Light: 97.1%
  content after 6 Months at 60° C.: 94.2%
  content after 6 Months at Room Temperature: 97.3%
In vivo
  AUC0→8 h Mol dose: 9074 ± 6292 ng·h/mL

## N#CC1(c2ccc(NC(=O)c3cccnc3NCc3ccncc3)cc2)CCCC1.O=C(O)CCC(=O)O [Succinate of compound A]
[1]
  content after 6 Months Under Light: 94.2%
  content after 6 Months at 60° C.: 93.8%
  content after 6 Months at Room Temperature: 96.2%
